Patent US6479435B1, “Diaryl ethers and processes for their preparation and herbicidal and desiccant compositions containing them” (ISK Americas Incorporated, priority 1997, dated 2002)

Legend:
Assay type in all cases: in vivo
[1] = tested on: soybean (Glycine max L., var. Pella 86, SOY); assay: Pre-emerge greenhouse test, crop damage rating; settings: 14 days after application, rating scale 0-100
In short: (§1)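 Seeds sown in sandy loam mix one day before track-sprayer application of compounds in acetone at 125–1000 g ai/ha (187 l/ha), then surface-watered to incorporate and bottom-watered. Visual rating 14 days after application on a 0–100 scale (0 = no damage, 100 = all plants dead).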

[2] = tested on: field corn (Zea mays L., var. Dekalb 535, CORN); assay: Pre-emerge greenhouse test, crop damage rating; settings: 14 days after application, rating scale 0-100
In short: as §1

[3] = tested on: upland rice (Oryza sp., var.Tebonnet, RICE); assay: Pre-emerge greenhouse test, crop damage rating; settings: 14 days after application, rating scale 0-100
In short: as §1

[4] = tested on: soybean (Glycine max L., var. Pella 86, SOY); assay: Post-emerge greenhouse test, crop damage rating; settings: 14 days after application
In short: (§2)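 Compounds in acetone with 0.25% v/v non-ionic surfactant were track-sprayed at 187 l/ha over plants at the 2-3 leaf stage, at 63 to 1000 g ai/ha. Pots were bottom-watered. Injury was scored visually 14 days later on a 0-100 scale, where 0 is no damage and 100 is complete plant death.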

[5] = tested on: velvetleaf (Abutilon theophrasti, ABUTH); assay: Pre-emerge greenhouse herbicide test, phytotoxicity rating; settings: 14 days after application, rating scale 0-100
In short: as §1

[6] = tested on: lambsquarters (Chenopodium album, CHEAL); assay: as above; settings: 14 days after application, rating scale 0-100
In short: as §1

[7] = tested on: large crabgrass (Digitaria sanguinalis, DIGSA); assay: as above; settings: 14 days after application, rating scale 0-100
In short: as §1

[8] = tested on: barnyardgrass (Echinochloa crusgalli, ECHCG); assay: as above; settings: 14 days after application, rating scale 0-100
In short: as §1

[9] = tested on: sicklepod (Cassia obtusifolia, CASOB); assay: as above; settings: 14 days after application, rating scale 0-100
In short: as §1

[10] = tested on: green foxtail (Setaria viridis, SETVI); assay: as above; settings: 14 days after application, rating scale 0-100
In short: as §1

[11] = tested on: ivyleaf morningglory (Ipomoea hederacea, IPOHE); assay: as above; settings: 14 days after application, rating scale 0-100
In short: as §1

[12] = tested on: common ragweed (Ambrosia artemisiifolia L., AMBEL); assay: as above; settings: 14 days after application, rating scale 0-100
In short: as §1

[13] = tested on: Johnsongrass (Sorghum halepense, SORHA); assay: as above; settings: 14 days after application, rating scale 0-100
In short: as §1

[14] = tested on: redroot pigweed (Amaranthus retroflexus, AMARE); assay: as above; settings: 14 days after application, rating scale 0-100
In short: as §1

[15] = tested on: field corn (Zea mays L., var. Dekalb 535, CORN); assay: Post-emerge greenhouse test, crop damage rating; settings: 14 days after application
In short: as §2

[16] = tested on: upland rice (Oryza sp., var.Tebonnet, RICE); assay: Post-emerge greenhouse test, crop damage rating; settings: 14 days after application
In short: as §2

[17] = tested on: velvetleaf (Abutilon theophrasti, ABUTH); assay: Post-emerge greenhouse herbicide test, phytotoxicity rating; settings: 14 days after application
In short: as §2

[18] = tested on: lambsquarters (Chenopodium album, CHEAL); assay: as above; settings: 14 days after application
In short: as §2

[19] = tested on: large crabgrass (Digitaria sanguinalis, DIGSA); assay: as above; settings: 14 days after application
In short: as §2

[20] = tested on: barnyardgrass (Echinochloa crusgalli, ECHCG); assay: as above; settings: 14 days after application
In short: as §2

[21] = tested on: sicklepod (Cassia obtusifolia, CASOB); assay: as above; settings: 14 days after application
In short: as §2

[22] = tested on: green foxtail (Setaria viridis, SETVI); assay: as above; settings: 14 days after application
In short: as §2

[23] = tested on: ivyleaf morningglory (Ipomoea hederacea, IPOHE); assay: as above; settings: 14 days after application
In short: as §2

[24] = tested on: Johnsongrass (Sorghum halepense, SORHA); assay: as above; settings: 14 days after application
In short: as §2

[25] = tested on: redroot pigweed (Amaranthus retroflexus, AMARE); assay: as above; settings: 14 days after application
In short: as §2

[26] = tested on: common ragweed (Ambrosia artemisiifolia L., AMBEL); assay: as above; settings: 14 days after application
In short: as §2

O=c1n(-c2cc(Oc3ccccc3)c(Cl)cc2F)c(=S)n2n1CCCC2 [Compound 8-5]
65: SETVI phytotoxicity rating (0-100) ([22]; 500 g al/ha)
90: IPOHE phytotoxicity rating (0-100) ([23]; 63 g al/ha)
25: crop damage rating RICE ([3]; 500 g ai/ha)
60: phytotoxicity rating ECHCG ([8]; 500 g ai/ha) | SORHA phytotoxicity rating (0-100) ([24]; 500 g al/ha)
20: phytotoxicity rating SORHA ([13]; 125 g ai/ha) | CORN crop damage rating (0-100) ([15]; 500 g al/ha) | ECHCG phytotoxicity rating (0-100) ([20]; 63 g al/ha)
85: SOY crop damage rating (0-100) ([4]; 500 g al/ha) | phytotoxicity rating DIGSA ([7]; 500 g ai/ha)
0: crop damage rating SOY ([1]; 125 g ai/ha) | crop damage rating CORN ([2]; 125 g ai/ha) | crop damage rating RICE ([3]; 125 g ai/ha) | phytotoxicity rating ECHCG ([8]; 125 g ai/ha) | phytotoxicity rating IPOHE ([11]; 125 g ai/ha) | RICE crop damage rating (0-100) ([16]; 63 g al/ha) | DIGSA phytotoxicity rating (0-100) ([19]; 63 g al/ha)
30: phytotoxicity rating CASOB ([9]; 125 g ai/ha) | phytotoxicity rating SORHA ([13]; 500 g ai/ha) | SETVI phytotoxicity rating (0-100) ([22]; 63 g al/ha)
55: ECHCG phytotoxicity rating (0-100) ([20]; 500 g al/ha) | CASOB phytotoxicity rating (0-100) ([21]; 63 g al/ha) | AMBEL phytotoxicity rating (0-100) ([26]; 63 g al/ha)
40: crop damage rating SOY ([1]; 500 g ai/ha) | phytotoxicity rating DIGSA ([7]; 125 g ai/ha) | phytotoxicity rating AMBEL ([12]; 125 g ai/ha)
50: SOY crop damage rating (0-100) ([4]; 63 g al/ha)
95: phytotoxicity rating CASOB ([9]; 500 g ai/ha) | phytotoxicity rating AMARE ([14]; 125 g ai/ha)
5: crop damage rating CORN ([2]; 500 g ai/ha) | CORN crop damage rating (0-100) ([15]; 63 g al/ha)
100: phytotoxicity rating ABUTH ([5]; 125 g ai/ha) | phytotoxicity rating ABUTH ([5]; 500 g ai/ha) | phytotoxicity rating CHEAL ([6]; 125 g ai/ha) | phytotoxicity rating CHEAL ([6]; 500 g ai/ha) | phytotoxicity rating SETVI ([10]; 500 g ai/ha) | phytotoxicity rating AMBEL ([12]; 500 g ai/ha) | phytotoxicity rating AMARE ([14]; 500 g ai/ha) | ABUTH phytotoxicity rating (0-100) ([17]; 63 g al/ha) | ABUTH phytotoxicity rating (0-100) ([17]; 500 g al/ha) | CHEAL phytotoxicity rating (0-100) ([18]; 63 g al/ha) | CHEAL phytotoxicity rating (0-100) ([18]; 500 g al/ha) | CASOB phytotoxicity rating (0-100) ([21]; 500 g al/ha) | IPOHE phytotoxicity rating (0-100) ([23]; 500 g al/ha) | AMARE phytotoxicity rating (0-100) ([25]; 63 g al/ha) | AMARE phytotoxicity rating (0-100) ([25]; 500 g al/ha) | AMBEL phytotoxicity rating (0-100) ([26]; 500 g al/ha)
70: phytotoxicity rating IPOHE ([11]; 500 g ai/ha) | DIGSA phytotoxicity rating (0-100) ([19]; 500 g al/ha)
10: RICE crop damage rating (0-100) ([16]; 500 g al/ha) | SORHA phytotoxicity rating (0-100) ([24]; 63 g al/ha)
80: phytotoxicity rating SETVI ([10]; 125 g ai/ha)

O=c1n(-c2cc(Oc3ccccc3[N+](=O)[O-])c(Cl)cc2F)c(=S)n2n1CCCC2 [Compound 8-6]
30: DIGSA phytotoxicity rating (0-100) ([19]; 500 g al/ha) | ECHCG phytotoxicity rating (0-100) ([20]; 500 g al/ha) | SETVI phytotoxicity rating (0-100) ([22]; 63 g al/ha) | SORHA phytotoxicity rating (0-100) ([24]; 500 g al/ha)
70: SOY crop damage rating (0-100) ([4]; 63 g al/ha)
20: crop damage rating SOY ([1]; 125 g ai/ha) | phytotoxicity rating ECHCG ([8]; 125 g ai/ha) | phytotoxicity rating SORHA ([13]; 125 g ai/ha) | CORN crop damage rating (0-100) ([15]; 500 g al/ha)
5: CORN crop damage rating (0-100) ([15]; 63 g al/ha) | RICE crop damage rating (0-100) ([16]; 63 g al/ha)
40: crop damage rating SOY ([1]; 500 g ai/ha) | crop damage rating RICE ([3]; 500 g ai/ha) | phytotoxicity rating DIGSA ([7]; 125 g ai/ha) | phytotoxicity rating AMBEL ([12]; 125 g ai/ha)
100: phytotoxicity rating ABUTH ([5]; 125 g ai/ha) | phytotoxicity rating ABUTH ([5]; 500 g ai/ha) | phytotoxicity rating CHEAL ([6]; 125 g ai/ha) | phytotoxicity rating CHEAL ([6]; 500 g ai/ha) | phytotoxicity rating DIGSA ([7]; 500 g ai/ha) | phytotoxicity rating CASOB ([9]; 125 g ai/ha) | phytotoxicity rating SETVI ([10]; 500 g ai/ha) | phytotoxicity rating AMBEL ([12]; 500 g ai/ha) | phytotoxicity rating AMARE ([14]; 125 g ai/ha) | phytotoxicity rating AMARE ([14]; 500 g ai/ha) | ABUTH phytotoxicity rating (0-100) ([17]; 63 g al/ha) | ABUTH phytotoxicity rating (0-100) ([17]; 500 g al/ha) | CASOB phytotoxicity rating (0-100) ([21]; 500 g al/ha) | IPOHE phytotoxicity rating (0-100) ([23]; 500 g al/ha) | AMARE phytotoxicity rating (0-100) ([25]; 63 g al/ha) | AMARE phytotoxicity rating (0-100) ([25]; 500 g al/ha)
50: phytotoxicity rating ECHCG ([8]; 500 g ai/ha) | phytotoxicity rating IPOHE ([11]; 125 g ai/ha) | phytotoxicity rating SORHA ([13]; 500 g ai/ha) | RICE crop damage rating (0-100) ([16]; 500 g al/ha)
95: phytotoxicity rating CASOB ([9]; 500 g ai/ha) | phytotoxicity rating SETVI ([10]; 125 g ai/ha)
0: crop damage rating CORN ([2]; 125 g ai/ha) | crop damage rating CORN ([2]; 500 g ai/ha) | DIGSA phytotoxicity rating (0-100) ([19]; 63 g al/ha) | SORHA phytotoxicity rating (0-100) ([24]; 63 g al/ha)
90: SOY crop damage rating (0-100) ([4]; 500 g al/ha) | phytotoxicity rating IPOHE ([11]; 500 g ai/ha) | CHEAL phytotoxicity rating (0-100) ([18]; 63 g al/ha) | SETVI phytotoxicity rating (0-100) ([22]; 500 g al/ha) | IPOHE phytotoxicity rating (0-100) ([23]; 63 g al/ha) | AMBEL phytotoxicity rating (0-100) ([26]; 500 g al/ha)
60: CASOB phytotoxicity rating (0-100) ([21]; 63 g al/ha) | AMBEL phytotoxicity rating (0-100) ([26]; 63 g al/ha)
10: crop damage rating RICE ([3]; 125 g ai/ha) | ECHCG phytotoxicity rating (0-100) ([20]; 63 g al/ha)
99: CHEAL phytotoxicity rating (0-100) ([18]; 500 g al/ha)
